Measured values as given in patent publication US20090054392A1, “NAPHTHYLPYRIMIDINE, NAPHTHYLPYRAZINE AND NAPHTHYLPYRIDAZINE ANALOGS AND THEIR USE AS AGONISTS OF THE WNT-BETA-CATENIN CELLULAR MESSAGING SYSTEM” (Wyeth, priority 2007, published 2009).
pEC50: −log10 of the molar value.

Test system: Dkk1-LRP5-TCF-Luciferase
Assay: Functional Dkk1-LRP5-TCF-Luciferase Assay in U2OS Cells
Settings: for fold induction at 2 µM / pEC50 / fold induction at 20 µM: Homo sapiens, U2OS; for fold induction at 2 µM: read-out: B = TCF ACTIVITY/DMSO CONTROL Fold induction @ 2.0 uM, 2.0 uM compound; for A = MAX FOLD Induction/DMSO CONTROL: maximum fold induction over DMSO control; for fold induction at 20 µM: read-out: C = TCF ACTIVITY/DMSO CONTROL Fold induction @ 20.0 uM, 20.0 uM compound
Procedure: Biological Evaluation—Functional Dkk1-LRP5-TCF-Luciferase Assay in U2OS Cells
Frozen U2OS-Dkk1-HTS Reporter cells generation: U2OS Human Bone derived cells (Osteosarcoma) are grown in McCoy's 5A Medium (Modified), with L -glutamine (GIBCO Cat No. 16600-082)+1% Pen-Strep+5% FBS) plated at 1×10^7 cells/T175 cm flask. The next day, the cells are co-transfected overnight with the following plasmids: (a) Test reporter (16×TCF-TK-FireFly-Luci), (b) Internal Control Reporter (TK-Renilla-Luci), (c) Wnt3a and (d) Dkk1. GIBCO's Lipofectamine 2000 and OptiMEM are used for the transfection. After a minimum of 4 hr of transfection at 37° C., the plasmid-transfected cells are trypsinized, counted, and suspended in freezing medium (95% FBS+5% DMSO). The reporter cells are frozen at 1×10^7/ml concentrations, aliquoted into 0.5 ml or 2.5 ml/tube and stored at 70° C.
The following day, test compounds are added under HTS setup by Plate Track into 384 well plates (white, TC treated, Falcon plate) such that the final concentration of the compounds in 20 μL/well cell will be 5 μg/ml (final concentration of DMSO=0.25% and final compound concentration=20 μM). Vials of frozen reporter cells are thawed by warming the vial in a 37° C. water bath for 60-120 seconds with some shaking until the cells formed a suspension. The thawed cells are transferred into a cold 50 ml (or larger) tube and mixed well by gentle pipetting. The appropriate amount of cold Phenol Red Free RPMI medium-1640 (GIBCO, Cat #11835-030) with L-glutamine is added, both with ˜5% FBS (GIBCO-BRL, Cat. #16000-044), so that 20 μl of the final cell suspension will contain ˜5,000 cells. The cell dilution is done such that the final concentration of FBS is ˜5%.
Diluted cells (20 μl) are added into each well in a 384 well plate. The plate is incubated at 37° C. under 5% CO2 for ˜20 h. Bright-Glo substrate, 2.5 μl/well is added, and the Fire Fly Luciferase is measured using VLUX (60 second exposure) immediately after the substrate is added. Test compounds are dissolved in DMSO (100%) and added to specified wells. Raw luciferase signal data obtained as relative luminescence units (RLUs) for the test compounds are normalized to the signal of the mean of the sample reporter cell plate with DMSO.

Compound	A = MAX FOLD Induction/DMSO CONTROL [fold]	pEC50	fold induction at 2 µM	fold induction at 20 µM
O[C@@H]1CCN(CC2CCN(c3nccc(-c4ccc5ccccc5c4)n3)C2)C1 (stereo partly drawn) [(3R)-1-({1-[4-(2-naphthyl)pyrimidin-2-yl]pyrrolidin-3-yl}methyl)pyrrolidin-3-ol]	–	–	1.2	–
N[C@@H]1CCN(c2nccc(-c3ccc4ccccc4c3)n2)C1 [(3R)-1-[4-(2-naphthyl)pyrimidin-2-yl]pyrrolidin-3-amine]	–	–	1.62	0.01
O[C@@H]1CCCN([C@H]2CCN(c3nccc(-c4ccc5ccccc5c4)n3)C2)C1 [(3R)-1-{(3S)-1-[4-(2-naphthyl)pyrimidin-2-yl]pyrrolidin-3-yl}piperidin-3-ol]	–	–	–	2.9
CN(C)[C@@H]1CCN(C[C@@H]2CCN(c3nccc(-c4ccc5ccccc5c4)n3)C2)C1 [(3R)—N,N-dimethyl-1-({(3S)-1-[4-(2-naphthyl)pyrimidin-2-yl]pyrrolidin-3-yl}methyl)pyrrolidin-3-amine]	–	–	1.53	0.03
CN(C)C(=O)N1CC[C@@H](Nc2nccc(-c3ccc4ccccc4c3)n2)C1 [(3R)—N,N-dimethyl-3-{[4-(2-naphthyl)pyrimidin-2-yl]amino}pyrrolidine-1-carboxamide]	–	–	–	1.33
c1ccc2cc(-c3ccnc(N4CC[C@@H](NCCN5CCOCC5)C4)n3)ccc2c1 [(3R)—N-(2-morpholin-4-ylethyl)-1-[4-(2-naphthyl)pyrimidin-2-yl]pyrrolidin-3-amine]	–	–	1.71	0.21
CC(C)(C)N[C@@H]1CCN(c2nccc(-c3ccc4ccccc4c3)n2)C1 [(3R)—N-(tert-butyl)-1-[4-(2-naphthyl)pyrimidin-2-yl]pyrrolidin-3-amine]	–	–	1.56	0.29
CN(C1CCCCC1)[C@@H]1CCN(c2nccc(-c3ccc4ccccc4c3)n2)C1 [(3R)—N-cyclohexyl-N-methyl-1-[4-(2-naphthyl)pyrimidin-2-yl]pyrrolidin-3-amine]	–	–	1.07	1.77
CN[C@@H]1CCN(c2nccc(-c3ccc4ccccc4c3)n2)C1 [(3R)—N-methyl-1-[4-(2-naphthyl)pyrimidin-2-yl]pyrrolidin-3-amine]	–	–	1.2	–
N[C@@H]1CCN([C@@H]2CCN(c3nccc(-c4ccc5ccccc5c4)n3)C2)C1 [(3R,3′R)-1′-[4-(2-naphthyl)pyrimidin-2-yl]-1,3′-bipyrrolidin-3-amine]	–	–	1.39	–
O[C@@H]1CCN([C@@H]2CCN(c3nccc(-c4ccc5ccccc5c4)n3)C2)C1 [(3R,3′R)-1′-[4-(2-naphthyl)pyrimidin-2-yl]-1,3′-bipyrrolidin-3-ol]	–	–	–	2.5
O[C@@H]1CCN([C@H]2CCN(c3nccc(-c4ccc5ccccc5c4)n3)C2)C1 [(3R,3′S)-1′-[4-(2-naphthyl)pyrimidin-2-yl]-1,3′-bipyrrolidin-3-ol]	–	–	2.1	–
O[C@H]1CCN(CC2CCN(c3nccc(-c4ccc5ccccc5c4)n3)C2)C1 (stereo partly drawn) [(3S)-1-({1-[4-(2-naphthyl)pyrimidin-2-yl]pyrrolidin-3-yl}methyl)pyrrolidin-3-ol]	–	–	3.2	–
FC(F)(F)CN[C@H]1CCN(c2nccc(-c3ccc4ccccc4c3)n2)C1 [(3S)-1-[4-(2-naphthyl)pyrimidin-2-yl]-N-(2,2,2-trifluoroethyl)pyrrolidin-3-amine]	–	–	0.83	1.38
N[C@H]1CCN(c2nccc(-c3ccc4ccccc4c3)n2)C1 [(3S)-1-[4-(2-naphthyl)pyrimidin-2-yl]pyrrolidin-3-amine]	–	–	1.48	–

Second part, led by results:

A = MAX FOLD Induction/DMSO CONTROL [fold]	pEC50	Compound	fold induction at 2 µM	fold induction at 20 µM
1.660	–	N[C@@H](CO)C1CCN(c2nccc(-c3ccc4ccccc4c3)n2)CC1 [(2R)-2-amino-2-{1-[4-(2-naphthyl)pyrimidin-2-yl]piperidin-4-yl}ethanol]	2.96	–
3.745	5.99	O[C@@H]1CCCN(CC2CCN(c3nccc(-c4ccc5ccccc5c4)n3)C2)C1 (stereo partly drawn) [(3R)-1-({1-[4-(2-naphthyl)pyrimidin-2-yl]pyrrolidin-3-yl}methyl)piperidin-3-ol]	2.34	0.01
–	5.66	O[C@@H]1CCCN([C@@H]2CCN(c3nccc(-c4ccc5ccccc5c4)n3)C2)C1 [(3R)-1-{(3R)-1-[4-(2-naphthyl)pyrimidin-2-yl]pyrrolidin-3-yl}piperidin-3-ol]	–	–
5.305	5.14	O=CN1CC[C@@H](Nc2nccc(-c3ccc4ccccc4c3)n2)C1 [(3R)-3-{[4-(2-naphthyl)pyrimidin-2-yl]amino}pyrrolidine-1-carbaldehyde]	1.03	2.69
5.295	5.06	NC(=O)N1CC[C@@H](Nc2nccc(-c3ccc4ccccc4c3)n2)C1 [(3R)-3-{[4-(2-naphthyl)pyrimidin-2-yl]amino}pyrrolidine-1-carboxamide]	–	2.42
1.440	–	CN(C)[C@@H]1CCN(C[C@H]2CCN(c3nccc(-c4ccc5ccccc5c4)n3)C2)C1 [(3R)—N,N-dimethyl-1-({(3R)-1-[4-(2-naphthyl)pyrimidin-2-yl]pyrrolidin-3-yl}methyl)pyrrolidin-3-amine]	2.24	0.02
5.193	5.45	CN(C)[C@@H]1CCN(c2nccc(-c3ccc4ccccc4c3)n2)C1 [(3R)—N,N-dimethyl-1-[4-(2-naphthyl)pyrimidin-2-yl]pyrrolidin-3-amine]	2.88	0.065
1.630	–	CN(C)[C@@H]1CCN(C(=O)[C@H]2CCCN2c2nccc(-c3ccc4ccccc4c3)n2)C1 [(3R)—N,N-dimethyl-1-{1-[4-(2-naphthyl)pyrimidin-2-yl]-D-prolyl}pyrrolidin-3-amine]	0.93	1.85
2.335	–	CN(C)[C@@H]1CCN(C(=O)[C@@H]2CCCN2c2nccc(-c3ccc4ccccc4c3)n2)C1 [(3R)—N,N-dimethyl-1-{1-[4-(2-naphthyl)pyrimidin-2-yl]-L-prolyl}pyrrolidin-3-amine]	1.1	4.43
2.510	5.50	CN(C)S(=O)(=O)N1CC[C@@H](Nc2nccc(-c3ccc4ccccc4c3)n2)C1 [(3R)—N,N-dimethyl-3-{[4-(2-naphthyl)pyrimidin-2-yl]amino}pyrrolidine-1-sulfonamide]	–	2.31
1.460	–	CCNC(=O)N1CC[C@@H](Nc2nccc(-c3ccc4ccccc4c3)n2)C1 [(3R)—N-ethyl-3-{[4-(2-naphthyl)pyrimidin-2-yl]amino}pyrrolidine-1-carboxamide]	–	2.01
1.710	–	CN(C)[C@@H]1CCN([C@@H]2CCN(c3nccc(-c4ccc5ccccc5c4)n3)C2)C1 [(3R,3′R)-N,N-dimethyl-1′-[4-(2-naphthyl)pyrimidin-2-yl]-1,3′-bipyrrolidin-3-amine]	2.71	0.01
4.637	5.97	CN(C)[C@@H]1CCN([C@H]2CCN(c3nccc(-c4ccc5ccccc5c4)n3)C2)C1 [(3R,3′S)-N,N-dimethyl-1′-[4-(2-naphthyl)pyrimidin-2-yl]-1,3′-bipyrrolidin-3-amine]	4.17	–
6.950	6.00	O[C@H]1CCCN(CC2CCN(c3nccc(-c4ccc5ccccc5c4)n3)C2)C1 (stereo partly drawn) [(3S)-1-({1-[4-(2-naphthyl)pyrimidin-2-yl]pyrrolidin-3-yl}methyl)piperidin-3-ol]	4.34	–
–	5.62	O[C@H]1CCCN([C@@H]2CCN(c3nccc(-c4ccc5ccccc5c4)n3)C2)C1 [(3S)-1-{(3R)-1-[4-(2-naphthyl)pyrimidin-2-yl]pyrrolidin-3-yl}piperidin-3-ol]	–	–
–	6.03	O[C@H]1CCCN([C@H]2CCN(c3nccc(-c4ccc5ccccc5c4)n3)C2)C1 [(3S)-1-{(3S)-1-[4-(2-naphthyl)pyrimidin-2-yl]pyrrolidin-3-yl}piperidin-3-ol]	–	–
3.165	5.17	O=CN1CC[C@H](Nc2nccc(-c3ccc4ccccc4c3)n2)C1 [(3S)-3-{[4-(2-naphthyl)pyrimidin-2-yl]amino}pyrrolidine-1-carbaldehyde]	1.8	3.51
2.750	5.82	NC(=O)N1CC[C@H](Nc2nccc(-c3ccc4ccccc4c3)n2)C1 [(3S)-3-{[4-(2-naphthyl)pyrimidin-2-yl]amino}pyrrolidine-1-carboxamide]	2.05	2.94
2.260	–	CN(C)[C@H]1CCN(C[C@H]2CCN(c3nccc(-c4ccc5ccccc5c4)n3)C2)C1 [(3S)—N,N-dimethyl-1-({(3R)-1-[4-(2-naphthyl)pyrimidin-2-yl]pyrrolidin-3-yl}methyl)pyrrolidin-3-amine]	2.55	0.02
1.660	–	CN(C)[C@H]1CCN(C[C@@H]2CCN(c3nccc(-c4ccc5ccccc5c4)n3)C2)C1 [(3S)—N,N-dimethyl-1-({(3S)-1-[4-(2-naphthyl)pyrimidin-2-yl]pyrrolidin-3-yl}methyl)pyrrolidin-3-amine]	2.08	0.01
3.390	5.52	CN(C)[C@H]1CCN(c2nccc(-c3ccc4ccccc4c3)n2)C1 [(3S)—N,N-dimethyl-1-[4-(2-naphthyl)pyrimidin-2-yl]pyrrolidin-3-amine]	–	0.08
